In patent US8105636B2, “Compositions and methods for treating inflammation and inflammation-related disorders by Plectranthus amboinicus extracts” (Academia Sinica, priority 2007, dated 2012):
Where two headings read alike, the source gives them in different places. Values belong to the compound of their own block, whether it stands above or below them.

What was measured:
[1] = target: T1, AP-1 (Homo sapiens, UniProt P01100+P05412); assay: AP-1 inhibition assay (ELISA), AP-1 binding to AP-1 recognition sequence
T1 construct: (Histidine)6; Strep-tag; made in house; host or cells: bacterial cells harboring pFos-Jun
T1 sequence (P01100 whole entry): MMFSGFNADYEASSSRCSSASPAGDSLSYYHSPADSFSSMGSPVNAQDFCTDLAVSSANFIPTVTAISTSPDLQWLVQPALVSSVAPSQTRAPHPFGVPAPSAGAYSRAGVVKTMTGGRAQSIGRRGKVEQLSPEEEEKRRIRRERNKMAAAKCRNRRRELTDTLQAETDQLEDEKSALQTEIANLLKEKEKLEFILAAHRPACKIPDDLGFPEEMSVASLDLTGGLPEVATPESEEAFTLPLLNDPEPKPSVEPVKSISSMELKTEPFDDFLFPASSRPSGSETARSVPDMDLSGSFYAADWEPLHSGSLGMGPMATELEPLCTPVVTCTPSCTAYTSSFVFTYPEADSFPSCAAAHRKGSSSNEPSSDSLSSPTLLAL
T1 sequence (P05412 whole entry): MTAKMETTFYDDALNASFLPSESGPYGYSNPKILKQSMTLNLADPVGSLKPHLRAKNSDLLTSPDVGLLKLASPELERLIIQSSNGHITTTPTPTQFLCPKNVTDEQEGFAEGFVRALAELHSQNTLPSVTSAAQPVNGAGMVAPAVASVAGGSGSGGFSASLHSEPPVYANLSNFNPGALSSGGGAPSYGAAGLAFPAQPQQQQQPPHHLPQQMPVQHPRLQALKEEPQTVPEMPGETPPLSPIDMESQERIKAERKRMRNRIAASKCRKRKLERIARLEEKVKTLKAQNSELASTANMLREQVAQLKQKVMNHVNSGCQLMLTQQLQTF
Method: To test the effect of the compounds of the present disclosure on AP-1 binding activity to AP-1 recognition sequence, ELISA experiments were performed.
According to implementations, binding assays were developed to identify inhibitors that block the AP-1 DNA binding activities. Traditional methods call for the preparation of nuclear extracts from TPA-stimulated cells, or require separate purification of Fos and Jun followed with in vitro dimerization to form a functional AP-1 complexes. A bicistronic expression vector that can drive the expression of two genes in one plasmid was thus designed as shown in FIG. 7. In this system, a promoter would directly drive the expression of the first gene, which is connected to the second gene via a ribosome-binding site in order to confer the expression of the second genes. Any pair of genes that form heterodimer in the cells for their physiological functions can be potentially expressed as complexes in the cells using this system.
According to implementations, the expression system of FIG. 7 was used to co-express AP-1 complexes. Accordingly, Fos (as gene 1) was tagged with a (Histidine)6 tag and Jun (as Gene 2) was tagged with Strep-tag as illustrated in FIG. 8A. […] Cross-linking experiments further confirmed the Fos-Jun complexes are dimers (FIG. 8C).
The crude extracts containing or the purified proteins were used for ELISA-based and fluorescence anisotropy-based binding analysis. Labeled oligonucleotides containing one or more copies of AP-1 consensus binding sites were used in the binding assays. Biotin-labeled oligonucleotides were used to coat streptavidin-plates in ELISA-binding assays. Rhodamine or fluorescein or other fluorophores-labeled oligonucleotides were used for fluorescence anisotropy analysis.

[2] = tested on: AP-1 transcription factors; assay: ELISA-based AP-1/DNA binding assay with nuclear extracts from TPA-activated HeLa or K562 cells; conditions: fractions of PA crude extract from preparative C18 HPLC; FIG. 4
Method: According to implementations of experimental data shown in FIG. 5, oligonucleotide containing AP-1 binding sites were incubated nuclear extracts from TPA-stimulated K562 (K562) or HeLa (HeLa) cells. The antibodies to AP-1 complexes were added followed with horseradish peroxidase-labeled secondary antibody for ELISA-based analysis. AP-1 binding activity in the nuclear extract from TPA-stimulated cells was defined as 100% and the AP-1 binding activity of buffer only was defined as 0%.
According to implementations of experimental data shown in FIG. 6, AP-1 complexes can be formed by different proteins such as C-Jun, JunB, JunD, c-Fos, Fos-B, Fra-1 or Fra-2.
Due to the involvement of AP-1 activity in inflammatory signaling, the effects of the PA crude extract on AP-1/DNA binding activity was examined. […] The nuclear extract prepared from TPA-activated HeLa or K562 cells were used as AP-1 protein sources. After incubating with the oligonucleotides containing AP-1 binding sites, the AP-1/DNA complexes were detected with HRP-conjugated anti-c-Fos antibodies.
The PA crude extract was further fractionated with preparative HPLC using C18 column. […] This fraction was further purified by employing another C18 column using the solvent gradient from 2% acetonitrile to 90% acetonitrile containing 0.1% trifluoreoacetic acid. […]

[3] = tested on: Human umbilical vein endothelial (HUVEC) cells; assay: LPS-induced cytokine/chemokine expression in HUVEC cells (Luminex); type: cell-based; parameters: unit not given here; conditions: HUVEC cells incubated with LPS, PA crude extract 1 mg/ml
Method: Human umbilical vein endothelial (HUVEC) cells were incubated with LPS in the absence or presence of 1 mg/ml crude extract of PA. The cytokine expression profile was determined using Luminex.

[4] = ELISA, AP-1 binding activity to AP-1 recognition sequence, read-out: IC50 (AP-1 inhibition assay)

- IC50 [1, 4]: 4.3 ± 2.6 µM
SMILES: O=C(O)/C(=C\c1ccc(O)c(O)c1)C(c1ccc(O)c(O)c1)C(O)C(=O)O (single isomer, unassigned) [Mena 987 (1)]

- IC50 [1, 4]: 0.8 ± 0.8 µM
SMILES: COC(=O)C(Cc1ccc(O)c(O)c1)NC(=O)[C@H](Cc1ccc(O)c(O)c1)OC(=O)/C=C/c1ccc(O)c(O)c1 (stereo partly drawn) [Compound 13]

- IC50 [1, 4]: 1.2 ± 0.8 µM
SMILES: CCOC(=O)C(Cc1ccc(O)c(O)c1)NC(=O)[C@H](Cc1ccc(O)c(O)c1)OC(=O)/C=C/c1ccc(O)c(O)c1 (stereo partly drawn) [Compound 14]

- IC50 [1, 4]: 34.7 ± 21.3 µM
SMILES: O=C(O)CC(NC(=O)C(Cc1ccc(O)c(O)c1)OC(=O)C=Cc1ccc(O)c(O)c1)C(=O)O (stereo not drawn) [Compound 15]

- IC50 [1, 4]: 21.3 ± 24 µM
SMILES: COC(=O)C(Cc1ccc(O)c(O)c1)NC(=O)C(Cc1cc(O)c(O)cc1[N+](=O)[O-])OC(=O)C=Cc1ccc(O)c(O)c1 (stereo not drawn) [Compound 16]

- IC50 [1, 4]: 43.4 ± 28.2 µM
SMILES: COC(=O)C(Cc1c[nH]c2ccccc12)NC(=O)C(Cc1ccc(O)c(O)c1)OC(=O)C=Cc1ccc(O)c(O)c1 (stereo not drawn) [Compound 17]

- IC50 [1, 4]: 31.9 ± 20 µM
SMILES: O=C(C=Cc1ccc(O)c(O)c1)OC(Cc1ccc(O)c(O)c1)C(=O)NC(Cc1c[nH]c2ccccc12)C(=O)O (stereo not drawn) [Compound 18]

- IC50 [1, 4]: 8 ± 4.7 µM
SMILES: COC(=O)C(Cc1ccc(O)c(O)c1)NC(=O)C(Cc1ccc(O)c(O)c1)NC(=O)C=Cc1ccc(O)c(O)c1 (stereo not drawn) [Compound 19]

- IC50 [1, 4]: 3.5 ± 2 µM
SMILES: O=C(C=Cc1ccc(O)c(O)c1)NC(Cc1ccc(O)c(O)c1)C(=O)NC(Cc1ccc(O)c(O)c1)C(=O)O (stereo not drawn) [Compound 20]

- IC50 [1, 4]: 1.4 ± 0.9 µM
SMILES: O=C(OC(Cc1ccc(O)c(O)c1)C(=O)O)C1=Cc2ccc(O)c(O)c2C(C(=O)OC(Cc2ccc(O)c(O)c2)C(=O)O)C1c1ccc(O)c(O)c1 (stereo not drawn) [Mena 9102 (3)]

- IC50 [1, 4]: 10 ± 4.1 µM
SMILES: O=C(/C=C/c1ccc(O)c(O)c1)O[C@H](Cc1ccc(O)c(O)c1)C(=O)O [rosmarinic acid (4), rosmarinic acid]
- Inhibitory effects against AP-1 binding of HPLC fractions and isolated components (in words) [2]: inhibitory effects

The remaining lines, values behind:

SMILES: O=C(/C=C/c1ccc(O)c(O)c1)NC[C@@H](O)C(=O)Oc1cccc(O)c1O [CHM9102]
- Inhibitory effects against AP-1 binding of HPLC fractions and isolated components (in words) [2]: inhibitory effects

SMILES: COC(=O)C(Cc1ccc(O)c(O)c1)NC(=O)/C=C/c1ccc(O)c(O)c1 (stereo not drawn) [Compound 5]
- IC50 [1, 4]: 39 ± 31 µM

SMILES: CCOC(=O)[C@H](Cc1ccc(O)c(O)c1)NC(=O)/C=C/c1ccc(O)c(O)c1 [Compound 6]
- IC50 [1, 4]: 32.5 ± 24 µM

SMILES: O=C(/C=C/c1ccc(O)c(O)c1)N[C@@H](Cc1ccc(O)c(O)c1)C(=O)O [Compound 7]
- IC50 [1, 4]: 9.2 ± 3.2 µM

SMILES: O=C(/C=C/c1ccc(O)c(O)c1)NCCc1ccc(O)c(O)c1 [Compound 8]
- IC50 [1, 4]: 12.9 ± 5.9 µM

SMILES: CCOP(=O)(OCC)C(Cc1ccc(O)c(O)c1)NC(=O)/C=C/c1ccc(O)c(O)c1 (stereo not drawn) [Compound 9]
- IC50 [1]: 26.2 ± 18.9 µM

SMILES: CCOC(=O)C(Cc1ccc(O)c(O)c1)OC(=O)/C=C/c1ccc(O)c(O)c1 (stereo not drawn) [Compound 10]
- IC50 [1, 4]: 5.6 ± 4.2 µM

SMILES: O=C(/C=C/c1cc(O)c(O)cc1[N+](=O)[O-])OC(Cc1cc(O)c(O)cc1[N+](=O)[O-])C(=O)O (stereo not drawn) [Compound 11]
- IC50 [1, 4]: 21.3 ± 24 µM

SMILES: COc1ccc2c(c1)c(CC(=O)O)c(C)n2C(=O)c1ccc(Cl)cc1 [Indomethacin]
- Eotaxin expression [3]: 29.1
- GM-CSF expression [3]: 220
- IFNg expression [3]: 2.41
- IL-1a expression [3]: 13.8
- IL-1b expression [3]: 11.7
- IL-2 expression [3]: 10.1
- IL-3 expression [3]: 8.82
- IL-4 expression [3]: 11.8
- IL-5 expression [3]: 1.24
- IL-6 expression [3]: 62300
- IL-7 expression [3]: 51.5
- IL-8 expression [3]: 8030
- IL-10 expression [3]: 1.12
- IL-12 (p40) expression [3]: 16.4
- IL-12 (p70) expression [3]: 6.43
- IL-13 expression [3]: 11.1
- IL-15 expression [3]: 13.4
- IP-10 expression [3]: 24.5
- MCP-1 expression [3]: 41800
- MIP-la expression [3]: 7.57
- RANTES expression [3]: 5.48
- TNFa expression [3]: 8.14
